Results taken from patent US20190211099A1, “METHODS AND COMPOSITIONS FOR TREATING CANCER WITH SIGLEC-9 ACTIVITY MODULATORS” (KING'S COLLEGE LONDON, priority 2016, published 2019).

Columns and labels:
Type in all cases: cell-based, human
[1] = system: monocytes from PBMCs; experiment: MUC1-ST mediated TAM formation in monocytes from PBMCs, 7 day serum-free culture
Experimental: To further explore the role of MUC1-ST in inducing a TAM-like phenotype, monocytes from PBMCs were plated in serum-free medium, incubated with MUC1-ST or PBS, and cultured for 7 days.
Intracellular calcium flux can lead to activation of the MEK/ERK pathway (Christo et al. (2015) IMMUNOL. AND CELL BIOLOGY 93: 694-704). […] Furthermore, treatment with the MEK inhibitor PD98059 at 10 μM inhibited MUC1-ST mediated TAM formation in monocytes (FIGS. 12B, 12D-12E).

[2] = system: monocytes; experiment: Nitric oxide release by monocytes (Griess method)
Experimental: MUC1-ST was further evaluated for its ability to produce pro-inflammatory nitric oxide, a product of the arginine processing enzyme (Thompson et al. (2015) CARCINOGENESIS 36: S232-S253). Supernatant was assessed using the Griess method according to the manufacturer's instructions (Biotium).

[3] = system: M-CSF macrophages differentiated with LPS and IFNγ; experiment: Differentiation of monocytes into M(LPS+IFNγ) macrophages: CD86 and IL-12; details: MUC1-ST added at day 1 of the culture
Experimental: Both the cell phenotype staining and neutralization studies described in the Examples were performed using the following antibodies (all anti-human): Siglec-9 (Biotechne; 191240), Siglec-9 FITC (Biotechne; 191240), Siglec-3 (Biotechne; 6C5/2), Siglec-7 (Biotechne; AF1138), Siglec-3 FITC (BD; P67.6), Siglec-7 PE (Biolegend; 6-434), Siglec-10 PE (Biolegend; 5G6), Siglec-1 (abcam; 7D2), HLA-DR FITC (Beckman Coulter; IM0463U), CD16 FITC (Biolegend; B73.1), CD14 FITC (BD 555397), CD69 PE (Beckman Coulter; IM1943), CD25 FITC (ABX228FITC), CD86 PE (Beckman Coulter; IM2729U), CD40 FITC (BD 555588), CD83 PE (Beckman Coulter; IM2218), CD163 PE (Biolegend; GHI/61), CXCR1 FITC (BD Pharmongen; 551126), CD45 PC5 (Beckman Coulter; IM2653U), CD206 PE (ebioscience; 19.2), PD-L1 PE (Biolegend; 29E.2A3), CD36 (Santa Cruz; H-300), TGFbetaRII (Bio-Techne; AF-241), IL-6Rα (Tocilizumab; Roche. A generous gift from Dr. Valerie Corrigall). […] At least 1×10^4 events were evaluated using either Epics XL, (Beckman Coulter) or FACSCalibur (BD Biosciences) flow cytometers. […]
Given that IL-6 and NO are known differentiation modulators (Oosterhoff et al. (2012) ONCOIMMUNOLOGY 1: 649-658; Bogdan (2015) TREND IMMUNOL. 36: 161-178) the effects of MUC1-ST on the differentiation of monocytes into macrophages was assessed. […]

[4] = system: SHP1; experiment: Western blot for phosphorylation of SHP1 in monocytes; details: primary monocytes
Experimental: A Western blot to assay phosphorylation of SHP, which is recruited by phosphorylated Siglec-9 (Avril et al. (2004) supra) was conducted. Monocytes were incubated with MUC1-ST and lysed as described above, and the resulting lysates were separated by SDS PAGE (10% gel) before being transferred, blocked and probed with anti-SHP1 (Santa Cruz), anti-phospho SHP1 (Abcam) and appropriate secondary antibodies. Phosphorylation of SHP was not observed after MUC1-ST binding to Siglec-9 on primary monocytes (FIG. 13C) although again, phosphorylation of SHP1 was observed when Siglec-9 was activated via antibody cross-linking. No activation of SHP2 was observed.

[5] = system: monocyte derived macrophages; experiment: Factors secreted by monocyte derived macrophages treated with MUC1-ST (ELISA)
Experimental: ELISAs for IL-6, IL-12p70, TGF-β1, PAI-1, M-CSF, EGF, SHP2, phospho-SHP2 (Biotechne) were all carried out as per manufacturer's instructions.
Secreted proteins from monocyte derived macrophages were assayed by ELISA as described in Example 2. […] All of these factors are associated with tumor progression (Duffy et al. (2014) BREAST CANCER RES. 16: 428; Jensen et al. (2002) CLIN. CANCER RES. 9:4423-4434). […] It has been discovered that MUC1-ST/Siglec-9 ‘educated’ monocytes and macrophages have a unique secretome.

With “NeuAcα2,3Galβ1-3GalNAc linked via a Ser/Thr of MUC1 [MUC1-ST]” the “expression of ECM component collagen type I” value [1] was “increased expression”, the “percentage of live macrophages in the culture” value ([1]; 7 days, serum-free medium) was “increased” and the “expression of TAM markers such as CD206 and PD-L1” value ([1]; flow cytometry) was “increased expression”. For the same substance, the nitric oxide production [2] was “produced nitric oxide”, the “levels of CD86 and IL-12” value [3] was “lower levels” and the “phosphorylation of SHP” value [4] was “not observed”. For the same substance, the “secretion of M-CSF, PAI-1, chitinase 3-like-1 and EGF” value [5] was “increased secretion”.
